Laboratory results as given in PubChem BioAssay (NCI).
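Assay format: 96-well plates, 48-hour exposure. Definition used: TGI = concentration required for complete inhibition of growth.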

Columns and labels:
Test in all cases: growth of human tumour cells (NCI), 48 h
RPMI-8226 leukemia = tested on: RPMI-8226 leukemia
DMS 273 small cell lung = tested on: DMS 273 small cell lung
KM12 colon = tested on: KM12 colon
SNB-19 CNS = tested on: SNB-19 CNS
M19-MEL melanoma = tested on: M19-MEL melanoma
UACC-257 melanoma = tested on: UACC-257 melanoma
K-562 leukemia = tested on: K-562 leukemia
DMS 114 small cell lung = tested on: DMS 114 small cell lung
UACC-62 melanoma = tested on: UACC-62 melanoma
A498 renal = tested on: A498 renal
A549 NSCLC = tested on: A549 NSCLC
SK-MEL-28 melanoma = tested on: SK-MEL-28 melanoma
MALME-3M melanoma = tested on: MALME-3M melanoma
NCI-H23 lung = tested on: NCI-H23 lung
HCT-116 colon = tested on: HCT-116 colon
786-0 renal = tested on: 786-0 renal
OVCAR-8 ovarian = tested on: OVCAR-8 ovarian
HCT-15 colon = tested on: HCT-15 colon
KM20L2 colon = tested on: KM20L2 colon
OVCAR-4 ovarian = tested on: OVCAR-4 ovarian
U251 CNS = tested on: U251 CNS
SNB-75 CNS = tested on: SNB-75 CNS
XF 498 CNS = tested on: XF 498 CNS
UO-31 renal = tested on: UO-31 renal
SF-539 CNS = tested on: SF-539 CNS
SW-620 colon = tested on: SW-620 colon
M14 melanoma = tested on: M14 melanoma
IGROV1 ovarian = tested on: IGROV1 ovarian
SK-OV-3 ovarian = tested on: SK-OV-3 ovarian
LXFL 529 NSCLC = tested on: LXFL 529 NSCLC
HOP-92 NSCLC = tested on: HOP-92 NSCLC
TK-10 renal = tested on: TK-10 renal
NCI-H226 lung = tested on: NCI-H226 lung
HOP-62 NSCLC = tested on: HOP-62 NSCLC
COLO 205 colon = tested on: COLO 205 colon
HL-60(TB) leukemia = tested on: HL-60(TB) leukemia
LOX IMVI melanoma = tested on: LOX IMVI melanoma
HCC-2998 colon = tested on: HCC-2998 colon
MOLT-4 leukemia = tested on: MOLT-4 leukemia
SK-MEL-5 melanoma = tested on: SK-MEL-5 melanoma
HOP-18 NSCLC = tested on: HOP-18 NSCLC
SR leukemia = tested on: SR leukemia
CAKI-1 renal = tested on: CAKI-1 renal
OVCAR-5 ovarian = tested on: OVCAR-5 ovarian
DLD-1 colon = tested on: DLD-1 colon
EKVX NSCLC = tested on: EKVX NSCLC
NCI-H522 lung = tested on: NCI-H522 lung
NCI-H460 lung = tested on: NCI-H460 lung
SK-MEL-2 melanoma = tested on: SK-MEL-2 melanoma
HT29 colon = tested on: HT29 colon
ACHN renal = tested on: ACHN renal
SF-295 CNS = tested on: SF-295 CNS
OVCAR-3 ovarian = tested on: OVCAR-3 ovarian
SNB-78 CNS = tested on: SNB-78 CNS
SN12C renal = tested on: SN12C renal
SF-268 CNS = tested on: SF-268 CNS
CCRF-CEM leukemia = tested on: CCRF-CEM leukemia
RXF 393 renal = tested on: RXF 393 renal
RXF-631 renal = tested on: RXF-631 renal

CC(C)C1NC(=O)[C@H](C)OC(=O)[C@@H](C(C)C)NC(=O)[C@@H](C)OC(=O)C(C(C)C)NC(=O)[C@H](C)OC1=O (stereo partly drawn)
TGI (RPMI-8226 leukemia): > 68.8 µM
TGI (DMS 273 small cell lung): > 100 µM
TGI (KM12 colon): > 100 µM
TGI (SNB-19 CNS): > 100 µM
TGI (M19-MEL melanoma): > 100 µM
TGI (UACC-257 melanoma): > 100 µM
TGI (K-562 leukemia): > 59.3 µM
TGI (DMS 114 small cell lung): > 100 µM
TGI (UACC-62 melanoma): > 100 µM
TGI (A498 renal): > 100 µM
TGI (A549 NSCLC): > 100 µM
TGI (SK-MEL-28 melanoma): > 100 µM
TGI (MALME-3M melanoma): > 100 µM
TGI (NCI-H23 lung): > 100 µM
TGI (HCT-116 colon): > 100 µM
TGI (786-0 renal): 47.2 µM
TGI (OVCAR-8 ovarian): > 100 µM
TGI (HCT-15 colon): 34.2 µM
TGI (KM20L2 colon): > 100 µM
TGI (OVCAR-4 ovarian): > 100 µM
TGI (U251 CNS): > 100 µM
TGI (SNB-75 CNS): > 100 µM
TGI (XF 498 CNS): > 100 µM
TGI (UO-31 renal): > 100 µM
TGI (SF-539 CNS): > 81.7 µM
TGI (SW-620 colon): > 51.7 µM
TGI (M14 melanoma): > 100 µM
TGI (IGROV1 ovarian): > 100 µM
TGI (SK-OV-3 ovarian): > 100 µM
TGI (LXFL 529 NSCLC): > 100 µM
TGI (HOP-92 NSCLC): > 100 µM
TGI (TK-10 renal): > 100 µM
TGI (NCI-H226 lung): > 100 µM
TGI (HOP-62 NSCLC): > 100 µM
TGI (COLO 205 colon): > 94.8 µM
TGI (HL-60(TB) leukemia): > 100 µM
TGI (LOX IMVI melanoma): > 79 µM
TGI (HCC-2998 colon): > 100 µM
TGI (MOLT-4 leukemia): > 100 µM
TGI (SK-MEL-5 melanoma): > 100 µM
TGI (HOP-18 NSCLC): > 100 µM
TGI (SR leukemia): 72.9 µM
TGI (CAKI-1 renal): > 100 µM
TGI (OVCAR-5 ovarian): > 100 µM
TGI (DLD-1 colon): > 100 µM
TGI (EKVX NSCLC): > 100 µM
TGI (NCI-H522 lung): > 100 µM
TGI (NCI-H460 lung): > 100 µM
TGI (SK-MEL-2 melanoma): > 100 µM
TGI (HT29 colon): > 100 µM
TGI (ACHN renal): > 100 µM
TGI (SF-295 CNS): > 100 µM
TGI (OVCAR-3 ovarian): > 100 µM
TGI (SNB-78 CNS): > 100 µM
TGI (SN12C renal): > 100 µM
TGI (SF-268 CNS): > 100 µM
TGI (CCRF-CEM leukemia): > 100 µM

O=C(CC1SC(=Nc2ccccc2Cl)NC1=O)Nc1ccc(Cl)cc1 (stereo not drawn)
TGI (DMS 273 small cell lung): > 100 µM
TGI (KM12 colon): > 100 µM
TGI (SNB-19 CNS): > 100 µM
TGI (M19-MEL melanoma): > 100 µM
TGI (UACC-257 melanoma): > 100 µM
TGI (K-562 leukemia): > 100 µM
TGI (DMS 114 small cell lung): > 100 µM
TGI (UACC-62 melanoma): > 100 µM
TGI (A498 renal): > 100 µM
TGI (A549 NSCLC): > 100 µM
TGI (SK-MEL-28 melanoma): > 100 µM
TGI (MALME-3M melanoma): > 100 µM
TGI (NCI-H23 lung): > 100 µM
TGI (HCT-116 colon): > 100 µM
TGI (786-0 renal): > 100 µM
TGI (HCT-15 colon): 30.8 µM
TGI (KM20L2 colon): > 100 µM
TGI (RXF 393 renal): > 100 µM
TGI (OVCAR-4 ovarian): > 100 µM
TGI (U251 CNS): > 100 µM
TGI (UO-31 renal): > 100 µM
TGI (SF-539 CNS): > 100 µM
TGI (SW-620 colon): 28.4 µM
TGI (M14 melanoma): > 100 µM
TGI (IGROV1 ovarian): > 100 µM
TGI (SK-OV-3 ovarian): > 100 µM
TGI (LXFL 529 NSCLC): > 100 µM
TGI (TK-10 renal): > 100 µM
TGI (HOP-62 NSCLC): > 100 µM
TGI (COLO 205 colon): 48.7 µM
TGI (HL-60(TB) leukemia): > 100 µM
TGI (LOX IMVI melanoma): > 100 µM
TGI (HCC-2998 colon): > 100 µM
TGI (SK-MEL-5 melanoma): > 100 µM
TGI (SR leukemia): 69.9 µM
TGI (CAKI-1 renal): > 100 µM
TGI (OVCAR-5 ovarian): > 100 µM
TGI (DLD-1 colon): > 100 µM
TGI (EKVX NSCLC): > 100 µM
TGI (NCI-H460 lung): > 100 µM
TGI (SK-MEL-2 melanoma): > 100 µM
TGI (HT29 colon): > 100 µM
TGI (ACHN renal): > 100 µM
TGI (SF-295 CNS): > 100 µM
TGI (SNB-78 CNS): > 100 µM
TGI (SN12C renal): > 100 µM
TGI (SF-268 CNS): > 100 µM
TGI (CCRF-CEM leukemia): > 100 µM

COc1ccc2c(c1OC)C(C=C(c1ccccc1)c1ccccc1)CN(C)C2 (stereo not drawn)
TGI (RPMI-8226 leukemia): 50.8 µM
TGI (DMS 273 small cell lung): 34.9 µM
TGI (KM12 colon): 48.9 µM
TGI (SNB-19 CNS): > 100 µM
TGI (M19-MEL melanoma): 81 µM
TGI (UACC-257 melanoma): 54.8 µM
TGI (K-562 leukemia): 25.1 µM
TGI (RXF-631 renal): 66.4 µM
TGI (DMS 114 small cell lung): 29.3 µM
TGI (UACC-62 melanoma): 40.2 µM
TGI (A498 renal): 65 µM
TGI (A549 NSCLC): 88.2 µM
TGI (SK-MEL-28 melanoma): 57.9 µM
TGI (MALME-3M melanoma): 38.1 µM
TGI (NCI-H23 lung): 63.1 µM
TGI (HCT-116 colon): 20.7 µM
TGI (786-0 renal): 39.5 µM
TGI (OVCAR-8 ovarian): 67 µM
TGI (HCT-15 colon): 33 µM
TGI (KM20L2 colon): 35.5 µM
TGI (OVCAR-4 ovarian): > 100 µM
TGI (U251 CNS): 57.3 µM
TGI (SNB-75 CNS): > 100 µM
TGI (UO-31 renal): > 100 µM
TGI (SF-539 CNS): 56.6 µM
TGI (SW-620 colon): 26.2 µM
TGI (M14 melanoma): 31.3 µM
TGI (IGROV1 ovarian): 43.5 µM
TGI (SK-OV-3 ovarian): > 100 µM
TGI (LXFL 529 NSCLC): 34.7 µM
TGI (HOP-92 NSCLC): 40.1 µM
TGI (TK-10 renal): 76.1 µM
TGI (NCI-H226 lung): 98.6 µM
TGI (HOP-62 NSCLC): 62.2 µM
TGI (COLO 205 colon): 28.5 µM
TGI (HCC-2998 colon): 67.1 µM
TGI (MOLT-4 leukemia): 64.7 µM
TGI (SK-MEL-5 melanoma): 29.7 µM
TGI (HOP-18 NSCLC): 67.7 µM
TGI (CAKI-1 renal): 45.3 µM
TGI (OVCAR-5 ovarian): 61.6 µM
TGI (DLD-1 colon): 76.8 µM
TGI (EKVX NSCLC): > 100 µM
TGI (NCI-H522 lung): 41.5 µM
TGI (NCI-H460 lung): 31.9 µM
TGI (HT29 colon): 42.7 µM
TGI (ACHN renal): > 100 µM
TGI (SF-295 CNS): 80.3 µM
TGI (OVCAR-3 ovarian): 59.9 µM
TGI (SNB-78 CNS): > 100 µM
TGI (SN12C renal): > 100 µM
TGI (SF-268 CNS): 72.2 µM
TGI (CCRF-CEM leukemia): 56.6 µM
